Test results published in US20250034216A1, “STEREOSELECTIVE COVALENT LIGANDS FOR ONCOGENIC AND IMMUNOLOGICAL PROTEINS” (The Scripps Research Institute, priority 2021, published 2025).

What was measured:
LAPTM4A_C20 = target: T1, LAPTM4A_C20 (Homo sapiens, UniProt Q15012); experiment: IA-DTB cysteine engagement; assay type: binding; conditions: 22Rv1 cells, 20 μM probe, 1 h, relative to DMSO
T1 construct: endogenous in cells; host or cells: 22Rv1
In short: (§1)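 Probe-exposed cells were lysed, IA-DTB-labeled, trypsinized and streptavidin-enriched. Multiplexed TMT quantitation gave engagement ratios versus DMSO, with non-tryptic peptides excluded and intensities normalized to median summed signal.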

CLUH_C333 = target: T2, CLUH_C333 (Homo sapiens, UniProt O75153); experiment: IA-DTB cysteine engagement; assay type: binding; conditions: 22Rv1 cells, 20 μM probe, 1 h, relative to DMSO
T2 construct: endogenous in cells; host or cells: 22Rv1
T2 sequence (O75153 1-1309): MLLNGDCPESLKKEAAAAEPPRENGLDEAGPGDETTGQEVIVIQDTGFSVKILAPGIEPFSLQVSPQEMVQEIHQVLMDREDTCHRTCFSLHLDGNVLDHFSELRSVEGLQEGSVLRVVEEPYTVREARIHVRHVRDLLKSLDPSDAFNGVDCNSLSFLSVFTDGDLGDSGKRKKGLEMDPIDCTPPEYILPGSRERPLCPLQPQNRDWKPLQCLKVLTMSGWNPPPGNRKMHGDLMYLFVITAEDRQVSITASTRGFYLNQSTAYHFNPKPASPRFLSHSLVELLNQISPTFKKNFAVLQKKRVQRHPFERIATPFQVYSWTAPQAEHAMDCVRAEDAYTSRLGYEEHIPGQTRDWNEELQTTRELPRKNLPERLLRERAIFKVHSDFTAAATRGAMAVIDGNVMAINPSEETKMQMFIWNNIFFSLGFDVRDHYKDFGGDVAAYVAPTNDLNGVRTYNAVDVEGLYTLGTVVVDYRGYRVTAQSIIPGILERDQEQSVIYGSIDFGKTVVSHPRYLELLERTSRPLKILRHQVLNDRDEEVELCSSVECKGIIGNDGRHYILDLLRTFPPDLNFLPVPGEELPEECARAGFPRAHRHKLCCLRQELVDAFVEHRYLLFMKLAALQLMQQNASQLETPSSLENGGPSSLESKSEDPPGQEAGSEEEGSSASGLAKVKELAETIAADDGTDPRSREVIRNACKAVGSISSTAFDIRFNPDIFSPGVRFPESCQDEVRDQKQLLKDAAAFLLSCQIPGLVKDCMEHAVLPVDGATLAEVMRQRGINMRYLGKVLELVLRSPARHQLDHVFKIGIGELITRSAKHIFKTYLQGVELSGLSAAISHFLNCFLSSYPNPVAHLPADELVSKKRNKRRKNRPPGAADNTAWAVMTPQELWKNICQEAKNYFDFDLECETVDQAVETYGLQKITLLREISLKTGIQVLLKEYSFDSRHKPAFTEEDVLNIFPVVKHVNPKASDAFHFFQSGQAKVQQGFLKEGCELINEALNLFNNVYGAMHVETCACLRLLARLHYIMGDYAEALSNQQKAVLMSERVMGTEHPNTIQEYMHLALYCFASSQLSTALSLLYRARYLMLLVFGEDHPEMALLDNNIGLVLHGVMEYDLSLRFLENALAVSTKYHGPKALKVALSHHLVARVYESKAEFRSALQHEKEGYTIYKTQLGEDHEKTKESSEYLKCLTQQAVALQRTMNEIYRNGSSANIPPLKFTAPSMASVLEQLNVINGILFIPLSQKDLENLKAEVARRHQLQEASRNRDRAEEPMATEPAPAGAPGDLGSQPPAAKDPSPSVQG
In short: as §1

Row | SMILES | % engagement LAPTM4A_C20 (LAPTM4A_C20) | % engagement CLUH_C333 (CLUH_C333)
1 | C=CC(=O)N1C[C@@H](c2ccc(Br)cc2)[C@H]1C(=O)Nc1cccc2cccnc12 [MY-1A, (2S,3R)-1-acryloyl-3-(4-bromophenyl)-N-(quinolin-8-yl)azetidine-2-carboxamide] | 69% | 81%
2 | C=CC(=O)N1C[C@H](c2ccc(Br)cc2)[C@@H]1C(=O)Nc1cccc2cccnc12 [MY-1B, (2R,3S)-1-acryloyl-3-(4-bromophenyl)-N-(quinolin-8-yl)azetidine-2-carboxamide] | 55% | 13%
3 | C=CC(=O)N1C[C@H](c2ccc(Br)cc2)[C@H]1C(=O)Nc1cccc2cccnc12 [MY-3A, (2S,3S)-1-acryloyl-3-(4-bromophenyl)-N-(quinolin-8-yl)azetidine-2-carboxamide] | 49.5% | 0.5%
4 | C=CC(=O)N1C[C@H](c2ccc(Br)cc2)[C@H]1C(=O)Nc1cccc2cccnc12 [MY-3B, (2S,3S)-1-acryloyl-3-(4-bromophenyl)-N-(quinolin-8-yl)azetidine-2-carboxamide] | 70.5% | −4.5%
